According to patent publication US20260167619A2, “INDOLINE COMPOUNDS AND DERIVATIVES AS EGFR INHIBITORS” (BeOne Medicines I GmbH, priority 2020, published 2026):

Key:
[1] = molecular target: T1, EGFR (aa668-1210, Invitrogen) (Homo sapiens, UniProt P00533); experiment: Biochemical EGFR inhibition assay (TR-FRET), wild-type EGFR; conditions: ATP at Km, 15 min pre-incubation, 60 min reaction; read-out: WT (Km ATP) IC50
T1 construct: EGFR (aa668-1210, Invitrogen); purchased Invitrogen
Method in brief: (§1)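 Recombinant kinase domains pre-incubated with compound 15 min at room temperature in HEPES pH 7.5 buffer, then reacted 60 min with ATP at Km and biotin-poly GT substrate. Phosphotyrosine detected by TR-FRET (Eu-anti-pTyr/streptavidin-XL665, 665/620 nm ratio); IC50 from four-parameter logistic fit.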

BaF3-Del_TM_CS cells = BaF3-Del_TM_CS cells (Homo sapiens, UniProt P00533, T790M/C797S, cells depend on it, form not given); experiment: Cell antiproliferation assay (CellTiter-Glo), BaF3-Del_TM_CS; type: cell-based; conditions: 48 h treatment, read-out: BaF3-Del_TM_CS IC50
Sequence of BaF3-Del_TM_CS cells (P00533 with tags, fused parts or gaps DEL746-750/T790M/C797S, form open): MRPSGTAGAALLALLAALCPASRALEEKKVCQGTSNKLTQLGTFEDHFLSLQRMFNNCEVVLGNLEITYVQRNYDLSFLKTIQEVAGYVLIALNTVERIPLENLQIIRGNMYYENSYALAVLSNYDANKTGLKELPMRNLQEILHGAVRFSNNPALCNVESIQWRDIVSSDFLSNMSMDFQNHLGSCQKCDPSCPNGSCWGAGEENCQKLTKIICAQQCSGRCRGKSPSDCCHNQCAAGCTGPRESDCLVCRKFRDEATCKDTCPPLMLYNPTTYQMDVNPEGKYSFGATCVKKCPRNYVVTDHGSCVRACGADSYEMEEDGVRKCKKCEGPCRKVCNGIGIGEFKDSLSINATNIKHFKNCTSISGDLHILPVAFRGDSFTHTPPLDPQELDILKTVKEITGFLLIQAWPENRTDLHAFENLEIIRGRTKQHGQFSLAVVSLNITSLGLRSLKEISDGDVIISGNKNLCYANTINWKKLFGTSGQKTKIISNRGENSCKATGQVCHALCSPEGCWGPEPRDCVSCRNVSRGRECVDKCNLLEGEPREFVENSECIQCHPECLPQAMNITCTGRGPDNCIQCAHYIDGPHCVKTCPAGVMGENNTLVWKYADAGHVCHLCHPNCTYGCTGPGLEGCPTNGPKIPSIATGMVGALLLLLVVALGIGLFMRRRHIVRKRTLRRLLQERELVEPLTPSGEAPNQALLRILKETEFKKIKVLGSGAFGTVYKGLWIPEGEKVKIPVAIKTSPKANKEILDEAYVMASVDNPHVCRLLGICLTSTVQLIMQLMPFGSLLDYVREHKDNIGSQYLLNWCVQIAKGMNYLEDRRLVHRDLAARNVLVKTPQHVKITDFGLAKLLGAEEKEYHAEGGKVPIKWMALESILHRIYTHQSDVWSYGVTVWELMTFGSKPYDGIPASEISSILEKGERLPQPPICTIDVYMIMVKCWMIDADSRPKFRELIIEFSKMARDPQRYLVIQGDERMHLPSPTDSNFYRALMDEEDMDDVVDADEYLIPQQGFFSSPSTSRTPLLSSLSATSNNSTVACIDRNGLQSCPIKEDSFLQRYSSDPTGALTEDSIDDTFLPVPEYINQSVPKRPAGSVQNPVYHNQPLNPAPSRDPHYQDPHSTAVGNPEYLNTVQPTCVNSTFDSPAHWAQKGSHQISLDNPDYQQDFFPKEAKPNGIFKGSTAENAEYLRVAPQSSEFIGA
Procedure: (§2) BaF3 cells are treated with compounds diluted in 0.2% DMSO, dilution is done according to the following protocol: (1) make 500× stock solution in DMSO from 5 mM by 5-fold dilution, total 8 doses were included; (2) make 10× solution in cell culture medium by transferring 2 μl 500× stock solution into 98 μl medium; (3) 10 μl of 10× solution is added to cells and incubate for 48 h.
(§3) After 48 h treatment, add 30 μl CellTiter-Glo reagent[CellTiter-Glo® 2.0, (Promega, Cat #G9242)] to each well; seal the plate and incubate 2 min at room temperature on a plate shaker; Allow the plate to incubate at room temperature for 10 minutes to stabilize the luminescent signal. Record luminescence on BMG PheraStar with luminescence protocol.
(§4) The IC50 value of a compound can be obtained by fitting the following equation
(§5) Wherein, X and Y are known values, and IC50, Hillslope, Top and Bottom are the parameters obtained by fitting with software. Y is the inhibition percentage (calculated from the equation), X is the concentration of the compound; IC50 is the concentration of the compound when the 50% inhibition is reached. The smaller the IC50 value is, the stronger the inhibitory ability of the compound is. Vice versa, the higher the IC50 value is, the weaker the ability the inhibitory ability of the compound is; Hillslope represents the slope of the fitted curve, generally around 1 *; Bottom represents the minimum value of the curve obtained by data fitting, which is generally 0%±20%; Top represents the maximum value of the curve obtained by data fitting, which is generally 100%±20%. The experimental data were fitted by calculating and analyzing with Dotmatics data analysis software.

[2] = molecular target: EGFR(Dell9_T790M_C797S) (aa 669-1210, in house) (Homo sapiens, UniProt P00533, T790M/C797S, form not given); experiment: Biochemical EGFR inhibition assay (TR-FRET), Del19/T790M/C797S mutant; conditions: ATP at Km, 15 min pre-incubation, 60 min reaction; read-out: Del_TM_CS (Km ATP) IC50
Sequence of EGFR(Dell9_T790M_C797S) (aa 669-1210, in house) (P00533 with tags, fused parts or gaps DEL746-750/T790M/C797S, form open): as above
Method in brief: as §1

BaF3-WT cells = BaF3-WT cells (Homo sapiens, UniProt P00533); experiment: Cell antiproliferation assay (CellTiter-Glo), BaF3-WT; type: cell-based; conditions: 48 h treatment, read-out: BaF3-WT IC50
Procedure: as §2, §3, §4, §5

[3] = molecular target: T2, EGFR(L858R_T790M_C797S) (aa695-end, Invitrogen) (Homo sapiens, UniProt P00533, C797S/L858R/T790M); experiment: Biochemical EGFR inhibition assay (TR-FRET), L858R/T790M/C797S mutant; conditions: ATP at Km, 15 min pre-incubation, 60 min reaction; read-out: LR_TM_CS (Km ATP) IC50
T2 construct: purchased Invitrogen
T2 sequence (P00533 695-1210 T790M/C797S/L858R): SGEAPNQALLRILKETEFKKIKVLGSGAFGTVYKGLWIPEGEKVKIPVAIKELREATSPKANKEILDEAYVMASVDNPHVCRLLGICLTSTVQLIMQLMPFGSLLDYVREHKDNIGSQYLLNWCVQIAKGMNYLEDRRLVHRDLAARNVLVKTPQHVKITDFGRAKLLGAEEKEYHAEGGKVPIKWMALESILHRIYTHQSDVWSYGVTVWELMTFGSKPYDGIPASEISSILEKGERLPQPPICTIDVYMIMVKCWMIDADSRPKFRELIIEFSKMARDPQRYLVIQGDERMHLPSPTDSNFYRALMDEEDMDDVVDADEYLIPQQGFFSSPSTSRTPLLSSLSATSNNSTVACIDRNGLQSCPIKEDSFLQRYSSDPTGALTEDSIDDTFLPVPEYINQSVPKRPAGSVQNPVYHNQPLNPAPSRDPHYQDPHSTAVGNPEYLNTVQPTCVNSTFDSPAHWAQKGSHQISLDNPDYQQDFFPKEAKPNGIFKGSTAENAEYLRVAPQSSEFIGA
Method in brief: as §1

BaF3-LR_TM_CS cells = BaF3-LR_TM_CS cells (Homo sapiens, UniProt P00533, T790M/C797S/L858R, cells depend on it); experiment: Cell antiproliferation assay (CellTiter-Glo), BaF3-LR_TM_CS; type: cell-based; conditions: 48 h treatment, read-out: BaF3-LR_TM_CS IC50
Sequence of BaF3-LR_TM_CS cells (P00533 whole entry T790M/C797S/L858R): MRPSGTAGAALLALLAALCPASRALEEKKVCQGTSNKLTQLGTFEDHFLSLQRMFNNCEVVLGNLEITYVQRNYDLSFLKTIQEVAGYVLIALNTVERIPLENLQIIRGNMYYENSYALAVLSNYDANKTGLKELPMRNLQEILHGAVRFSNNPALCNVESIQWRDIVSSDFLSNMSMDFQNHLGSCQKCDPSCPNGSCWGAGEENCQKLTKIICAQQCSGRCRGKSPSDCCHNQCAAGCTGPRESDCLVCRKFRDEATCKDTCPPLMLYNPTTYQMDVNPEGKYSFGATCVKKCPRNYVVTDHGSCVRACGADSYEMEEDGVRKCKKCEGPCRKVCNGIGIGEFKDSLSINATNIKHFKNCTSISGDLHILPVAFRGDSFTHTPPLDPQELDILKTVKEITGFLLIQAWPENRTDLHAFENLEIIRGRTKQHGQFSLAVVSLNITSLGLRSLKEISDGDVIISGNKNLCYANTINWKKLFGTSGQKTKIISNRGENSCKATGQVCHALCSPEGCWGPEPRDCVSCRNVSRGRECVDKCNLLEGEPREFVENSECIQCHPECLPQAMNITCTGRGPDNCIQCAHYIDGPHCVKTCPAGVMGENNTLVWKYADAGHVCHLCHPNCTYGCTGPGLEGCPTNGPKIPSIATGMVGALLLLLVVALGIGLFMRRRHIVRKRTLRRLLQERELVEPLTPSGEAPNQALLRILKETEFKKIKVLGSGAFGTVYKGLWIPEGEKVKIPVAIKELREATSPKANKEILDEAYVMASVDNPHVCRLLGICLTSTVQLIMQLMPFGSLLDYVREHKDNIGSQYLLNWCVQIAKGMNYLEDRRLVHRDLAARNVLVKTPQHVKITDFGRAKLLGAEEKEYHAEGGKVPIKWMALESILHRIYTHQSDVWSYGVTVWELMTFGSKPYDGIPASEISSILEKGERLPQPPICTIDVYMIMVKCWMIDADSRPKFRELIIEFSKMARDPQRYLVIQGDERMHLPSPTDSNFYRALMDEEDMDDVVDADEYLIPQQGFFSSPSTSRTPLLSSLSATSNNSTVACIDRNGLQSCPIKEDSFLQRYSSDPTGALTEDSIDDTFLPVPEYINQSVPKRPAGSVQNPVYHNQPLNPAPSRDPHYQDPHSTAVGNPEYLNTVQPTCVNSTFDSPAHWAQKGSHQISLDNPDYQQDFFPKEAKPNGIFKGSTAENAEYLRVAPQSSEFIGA
Procedure: as §2, §3, §4, §5

T1 sequence (P00533 668-1210): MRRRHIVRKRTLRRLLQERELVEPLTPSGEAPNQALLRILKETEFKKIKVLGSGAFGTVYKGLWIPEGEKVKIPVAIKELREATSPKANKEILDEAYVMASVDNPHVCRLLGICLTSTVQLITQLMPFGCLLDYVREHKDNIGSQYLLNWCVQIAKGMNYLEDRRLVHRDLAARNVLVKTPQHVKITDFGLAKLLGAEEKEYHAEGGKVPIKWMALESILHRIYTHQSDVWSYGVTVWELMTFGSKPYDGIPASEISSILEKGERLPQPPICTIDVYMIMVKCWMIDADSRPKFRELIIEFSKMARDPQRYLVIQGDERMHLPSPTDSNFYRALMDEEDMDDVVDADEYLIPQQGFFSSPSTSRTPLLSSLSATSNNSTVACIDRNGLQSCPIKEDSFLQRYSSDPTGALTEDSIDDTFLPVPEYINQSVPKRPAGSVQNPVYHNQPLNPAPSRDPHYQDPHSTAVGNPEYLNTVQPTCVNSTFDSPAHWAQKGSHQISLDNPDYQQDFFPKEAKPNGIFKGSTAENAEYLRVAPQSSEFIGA

SMILES | IC50 [1] | GI50 (BaF3-Del_TM_CS cells) | IC50 [2] | GI50 (BaF3-WT cells) | IC50 [3] | GI50 (BaF3-LR_TM_CS cells)
CN(C)C1CCN(c2ccc(Nc3ncc(Br)c(Nc4cccc5c4N(S(C)(=O)=O)CC5)n3)c3c2CCO3)CC1 [Example 48, 5-bromo-N^2-(4-(4-(dimethylamino)piperidin-1-yl)-2,3-dihydrobenzofuran-7-yl)-N^4-(1-(methylsulfonyl)indolin-7-yl)pyrimidine-2,4-diamine] | 4.4 nM | 3.56 nM | 0.18 nM | 361 nM | 0.3 nM | 30.5 nM
COc1cc(N2CCC(N3CCN(C)CC3)CC2)ccc1Nc1ncc(Cl)c(Nc2cccc3c2N(S(=O)(=O)N(C)C)CC3)n1 [Example 13, 7-((5-chloro-2-((2-methoxy-4-(4-(4-methylpiperazin-1-yl)piperidin-1-yl)phenyl)amino)pyrimidin-4-yl)amino)-N,N-dimethylindoline-1-sulfonamide] | 13 nM | 158 nM | 6.2 nM | 897 nM | 1.3 nM | 294 nM
COc1cc(N2CCC(N3CCN(C)CC3)CC2)ccc1Nc1ncc(Br)c(Nc2cccc3c2N(S(C)(=O)=O)CC3)n1 [Example 34, 5-bromo-N2-(2-methoxy-4-(4-(4-methylpiperazin-1-yl)piperidin-1-yl)phenyl)-N4-(1-(methylsulfonyl)indolin-7-yl)pyrimidine-2,4-diamine] | 0.72 nM | 4.25 nM | 0.24 nM | 427 nM | 0.21 nM | 13 nM
COc1cc(N2CCC(N3CCN(C)CC3)CC2)ccc1Nc1ncc(Cl)c(Nc2cccc3c2N(S(=O)(=O)C(C)(C)C)CC3)n1 [Example 9, N^4-(1-(tert-butylsulfonyl)indolin-7-yl)-5-chloro-N^2-(2-methoxy-4-(4-(4-methylpiperazin-1-yl)piperidin-1-yl)phenyl)pyrimidine-2,4-diamine] | 187 nM | 455 nM | 186 nM | 1640 nM | 13 nM | 428 nM
COc1cc(N2CCC(N3CCN(C)CC3)CC2)ccc1Nc1ncc(Cl)c(Nc2cccc3c2N(S(C)(=O)=O)CCC3)n1 [Example 10, 5-chloro-N^2-(2-methoxy-4-(4-(4-methylpiperazin-1-yl)piperidin-1-yl)phenyl)-N^4-(1-(methylsulfonyl)-1,2,3,4-tetrahydroquinolin-8-yl)pyrimidine-2,4-diamine] | 2.6 nM | 46 nM | 0.39 nM | 1870 nM | 1.5 nM | 143 nM
CCc1cc(Nc2ncc(Cl)c(Nc3cccc4c3N(S(C)(=O)=O)CC4)n2)c(OC)cc1N1CCC(N2CCN(C)CC2)CC1 [Example 41, 5-chloro-N^2-(5-ethyl-2-methoxy-4-(4-(4-methylpiperazin-1-yl)piperidin-1-yl)phenyl)-N^4-(1-(methylsulfonyl)indolin-7yl)pyrimidine-2,4-diamine] | 0.81 nM | 6.06 nM | 0.51 nM | 610 nM | 0.67 nM | 15.4 nM
CN(C)C1CCN(c2ccc(Nc3ncc(Cl)c(Nc4cccc5c4N(S(C)(=O)=O)CC5)n3)c3c2OCO3)CC1 [Example 51, 5-chloro-N2-(7-(4-(dimethylamino)piperidin-1-yl)benzo[d][1,3]dioxol-4-yl)-N4-(1-(methylsulfonyl)indolin-7-yl)pyrimidine-2,4-diamine] | 4.2 nM | 10.1 nM | 0.19 nM | 235 nM | 0.8 nM | 35.9 nM
COc1cc(N2CCC(N3CCN(C)CC3)CC2)ccc1Nc1ncc(Cl)c(Nc2cccc3c2N(S(C)(=O)=O)CC3C)n1 (stereo not drawn) [Example 23, 5-chloro-N^2-(2-methoxy-4-(4-(4-methylpiperazin-1-yl)piperidin-1-yl)phenyl)-N^4-(3-methyl-1-(methylsulfonyl)indolin-7-yl)pyrimidine-2,4-diamine] | 1.1 nM | 13.3 nM | 0.54 nM | 453 nM | 0.54 nM | 38.4 nM
COc1cc(N2CCC(N3CCN(C)CC3)CC2)ccc1Nc1ncc(Cl)c(Nc2ccc(C)c3c2N(S(C)(=O)=O)CC3)n1 [Example 4, 5-chloro-N^2-(2-methoxy-4-(4-(4-methylpiperazin-1-yl)piperidin-1-yl)phenyl)-N^4-(4-methyl-1-(methylsulfonyl)indolin-7-yl)pyrimidine-2,4-diamine] | 0.49 nM | 12 nM | 0.17 nM | 466 nM | 0.27 nM | 57.2 nM

Further lines, results first:

IC50 [1] | GI50 (BaF3-Del_TM_CS cells) | IC50 [2] | GI50 (BaF3-WT cells) | IC50 [3] | GI50 (BaF3-LR_TM_CS cells) | SMILES
573 nM | 64.3 nM | 6.3 nM | 376 nM | 4.8 nM | 169 nM | CN1CCN(c2ccc(Nc3nc(Nc4cccc5c4N(S(C)(=O)=O)CC5)c4cc[nH]c4n3)cn2)CC1 [Example 123, N^2-(6-(4-methylpiperazin-1-yl)pyridin-3-yl)-N^4-(1-(methylsulfonyl)indolin-7-yl)-7H-pyrrolo[2,3-d]pyrimidine-2,4-diamine]
575 nM | 57.3 nM | 4.9 nM | 1790 nM | 5.3 nM | 93.8 nM | COc1cc(N2C[C@@H](C)N(C)[C@@H](C)C2)c(C)cc1Nc1nc(Nc2cccc3c2N(S(C)(=O)=O)CC3)c2cc[nH]c2n1 [Example 106, N^2-(2-methoxy-5-methyl-4-((3S,5R)-3,4,5-trimethylpiperazin-1-yl)phenyl)-N^4-(1-(methylsulfonyl)indolin-7-yl)-7H-pyrrolo[2,3-d]pyrimidine-2,4-diamine]
109 nM | 29.3 nM | 1.7 nM | 1480 nM | 1.4 nM | 66.5 nM | COc1cc(N2CCC3(CCN(C)CC3)CC2)c(Cl)cc1Nc1nc(Nc2cccc3c2N(S(C)(=O)=O)CC3)c2cc[nH]c2n1 [Example 96, N^2-(5-chloro-2-methoxy-4-(9-methyl-3,9-diazaspiro[5.5]undecan-3-yl)phenyl)-N^4-(1-(methylsulfonyl)indolin-7-yl)-7H-pyrrolo[2,3-d]pyrimidine-2,4-diamine]
66 nM | 30.4 nM | 2 nM | 1710 nM | 1.1 nM | 314 nM | COc1cc(N2C[C@H]3CN(C)C[C@H]3C2)c(C)cc1Nc1nc(Nc2cccc3c2N(S(C)(=O)=O)CC3)c2cc[nH]c2n1 [Example 102, N^2-(2-methoxy-5-methyl-4-((3aR,6aS)-5-methylhexahydropyrrolo[3,4-c]pyrrol-2(1H)-yl)phenyl)-N^4-(1-(methylsulfonyl)indolin-7-yl)-7H-pyrrolo[2,3-d]pyrimidine-2,4-diamine]
206 nM | 104 nM | 4.3 nM | 1930 nM | 2.4 nM | 240 nM | COc1cc(N2CC3(CN(C)C3)C2)c(F)cc1Nc1nc(Nc2cccc3c2N(S(C)(=O)=O)CC3)c2cc[nH]c2n1 [Example 97, N^2-(5-fluoro-2-methoxy-4-(6-methyl-2,6-diazaspiro[3.3]heptan-2-yl)phenyl)-N^4-(1-(methylsulfonyl)indolin-7-yl)-7H-pyrrolo[2,3-d]pyrimidine-2,4-diamine]
